Test results taken from US7217697B2, “Glucopyranosyloxypyrazole derivative medicinal composition containing the same medicinal use thereof and intermediate therefor” (Kissei Pharmaceutical Co., Ltd., priority 2001, dated 2007).

What was measured:
Male C57BL/6J mice = assay: Acute toxicity test; format: in vivo; conditions: n=5, oral 1 g/kg, observed for 48 hours
Description: Male C57BL/6J mice (CLEA Japan, Inc.; 17 weeks old, 20–23 g, n=5) were fasted for 4 hours.

human SGLT1 = biological target: T1, human SGLT1 (Homo sapiens, UniProt P13866); assay: Assay for inhibitory effects on human SGLT1 activity (uptake of methyl-α-D-glucopyranoside); format: cell-based; conditions: CS1-5-11D cells (CHO-K1 stably expressing human SGLT1); uptake of 1 mM 14C-labeled α-MG, 37° C., 1 hour
T1 construct: expressed in transfected cells
T1 sequence (P13866 1-664): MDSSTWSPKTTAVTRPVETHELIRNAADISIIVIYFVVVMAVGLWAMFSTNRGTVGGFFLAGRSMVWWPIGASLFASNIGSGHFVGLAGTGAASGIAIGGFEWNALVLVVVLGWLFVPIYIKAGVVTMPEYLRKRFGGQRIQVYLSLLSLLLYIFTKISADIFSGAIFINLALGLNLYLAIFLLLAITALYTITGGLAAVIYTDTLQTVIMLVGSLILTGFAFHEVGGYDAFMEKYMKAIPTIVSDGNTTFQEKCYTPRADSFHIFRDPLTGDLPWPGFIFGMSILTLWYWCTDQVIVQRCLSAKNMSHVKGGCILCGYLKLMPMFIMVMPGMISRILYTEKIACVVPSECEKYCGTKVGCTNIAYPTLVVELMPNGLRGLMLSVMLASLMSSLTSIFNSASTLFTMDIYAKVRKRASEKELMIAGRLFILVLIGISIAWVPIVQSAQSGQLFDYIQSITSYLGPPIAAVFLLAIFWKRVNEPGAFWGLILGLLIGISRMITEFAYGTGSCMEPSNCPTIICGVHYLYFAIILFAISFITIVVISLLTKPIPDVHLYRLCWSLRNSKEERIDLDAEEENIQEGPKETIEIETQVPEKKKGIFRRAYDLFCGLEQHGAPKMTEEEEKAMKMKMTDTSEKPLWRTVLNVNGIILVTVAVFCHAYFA
Description: Assay for Inhibitory Effects on Human SGLT1 Activity
1) Cloning and Construction of the Vector Expressing Human SGLT1
The cDNA library was prepared for PCR amplification by reverse transcription from total RNA deprived from human small intestine (Ori gene) using oligo-dT as a primer. Using this cDNA library as a template, the DNA fragment coding 1 to 2005 bp of human SGLT1 (ACCESSION: M24847), which was reported by Hediger et al., was amplified by PCR method and inserted into the multi-cloning site of pcDNA3.1(−) (Invitrogen). The DNA sequence inserted was perfectly matched to the previously reported sequence of human SGLT1.
2) Establishment of Cell Line Stably Expressing Human SGLT1
The expression vector of human SGLT1 was digested by Sca I into a linear DNA. The linear DNA was transfected into CHO-K1 cells by means of lipofection (Effectene Transfection Reagent: QIAGEN). Neomycin resistant cell lines were selected by culture in the medium containing G418 (1 mg/mL, LIFE TECHNOLOGIES), and then the activity against the uptake of methyl-α-D-glucopyranoside was measured by the method described below. […] CS1-5–11D cells were cultured in the presence of G418 at 200 μg/mL.
3) Measurement of the Inhibitory Activity Against the Uptake of methyl-α-D-glucopyranoside (α-MG)
CS1-5-11D cells were seeded into a 96-well culture plate at a density of 3×10^4 cells/well and cultured for 2 days, and were used in the uptake assay. A mixture of non-labeled (Sigma) and ^14C-labeled α-MG (Amersham Pharmcia Biotec) added to the uptake buffer (pH 7.4; containing 140 mM sodium chloride, 2 mM potassium chloride, 1 mM calcium chloride, 1 mM magnesium chloride, 10 mM 2-[4-(2-hydroxyethyl)-1-piperazinyl]ethane sulfonic acid, and 5 mM tris(hydroxymethyl)aminomethane) at the final concentration of 1 mM. A test compound was dissolved in dimethyl sulfoxide, and then appropriately diluted with distilled water. The test compound solution was added to the uptake buffer containing 1 mM α-MG, and designated as a measurement buffer. For the control group, the measurement buffer without any test compound was prepared. For measuring the basal uptake, a basal buffer which contains 140 mM chorine chloride instead of 140 mM sodium chloride was prepared. After removing the culture medium of CS1-5-11D cells, 180 μL of the pre-treatment buffer (the uptake buffer not containing α-MG) was added to each well and incubated at 37° C. for 10 minutes. After repeating the same treatment, the pre-treatment buffer was removed. To each well was added 75 μL of the measurement buffer or the basal buffer was added and incubated at 37° C. for 1 hour. After removing the measurement buffer, cells were washed twice with 180 μL per well of the washing buffer (the basal buffer containing 10 mM non-labeled α-MG). The cells were solubilized by 75 μL per well of 0.2 mol/L sodium hydroxide. The cell lysates were transferred into PicoPlates (Packard), and then added 150 μL of MicroScint-40 (Packard) and mixed. Radioactivity was measured by means of micro-scintillation counter TopCount (Packard). One hundred % was set to the difference between the uptake in the control group and the basal uptake, and the uptake of methyl α-D-glucopyranoside at each drug concentration were calculated. The drug concentration, at which 50% uptake of methyl α-D-glucopyranoside was inhibited (IC50 value), was calculated using logit plot.

diabetic rats = assay: Assay for inhibitory effects on blood glucose level increase in rats (liquid meal tolerance test); format: in vivo; conditions: diabetic rats (nicotinamide/streptozotocin), 10 mg/kg orally, liquid meal 15 kcal/kg, mean±S.E.
Description: Assay for Inhibitory Effects on Blood Glucose Level Increase in Rats
1) Preparation of Diabetic Rat Model
Ten weeks old rats were injected nicotinamide (230 mg/kg) intraperitoneally. Fifteen minutes after injection, they were injected streptozotocin (65 mg/kg) intravenously from tail vain under anesthesia with ether. Two weeks later, rats were fasted for 5 hours and then oral glucose tolerance test (2 g/kg) was done.
2) Liquid Meal Tolerance Test
After 16 hours fasted, the diabetic rats were orally administered a test compound (10 mg/kg), which was suspended with 0.5% sodium carboxymethylcellulose (CMC), in the drug-treating group, or 0.5% sodium carboxymethylcellulose (CMC) alone in a control group. Immediately after the compound administration, 15 kcal/kg of liquid meal (No. 038, Conrol diet, assorted with dextrin and maltose; Oriental Yeast Co., Ltd.) was loaded orally. The blood was collected from tail artery immediately before (0 h), at 0.5 and 1 hour after administration, and treated with heparin immediately. The blood was centrifuged, and the plasma was collected to quantify the plasma glucose concentration. The values in the table are presented as the mean±S.E.

For `CC(C)c1[nH]nc(O[C@@H]2O[C@H](CO)[C@@H](O)[C@H](O)[C@H]2O)c1Cc1ccccc1OCc1ccccc1` [Example 2, 4-(2-Benzyloxybenzyl)-3-(β-D-glucopyranosyloxy)-5-isopropyl-1H-pyrazole], the Number of death (Male C57BL/6J mice) was 0/5, the IC50 (human SGLT1) was 18 nM and the Plasma glucose concentration (diabetic rats; 0 h (pretreatment)) was 126 ± 7 mg/dL. The Plasma glucose concentration (diabetic rats; 0.5 h after administration) was 194 ± 7 mg/dL and the Plasma glucose concentration (diabetic rats; 1 h after administration) was 219 ± 16 mg/dL.
`OCCCn1nc(O[C@@H]2O[C@H](CO)[C@@H](O)[C@H](O)[C@H]2O)c(Cc2ccccc2OCc2ccccc2)c1C(F)(F)F` [Example 13, 4-(2-Benzyloxybenzyl)-3-(β-D-glucopyranosyloxy)-1-(3-hydroxypropyl)-5-trifluoromethyl-1H-pyrazole] gave an IC50 (human SGLT1) of 30 nM.
With `CC(C)c1c(Cc2ccccc2OCc2ccccc2)c(O[C@@H]2O[C@H](CO)[C@@H](O)[C@H](O)[C@H]2O)nn1CCO` [Example 9, 4-(2-Benzyloxybenzyl)-3-(β-D-glucopyranosyloxy)-1-(2-hydroxyethyl)-5-isopropyl-1H-pyrazole] the IC50 (human SGLT1) was 8 nM.
`CC(C)c1[nH]nc(O[C@@H]2O[C@H](CO)[C@@H](O)[C@H](O)[C@H]2O)c1Cc1ccccc1OC1CCCCCC1` [Example 51, 4-(2-Cycloheptyloxybenzyl)-3-(β-D-glucopyranosyloxy)-5-isopropyl-1H-pyrazole] was tested, and the IC50 (human SGLT1) was 194 nM.
`CC(C)c1[nH]nc(O[C@@H]2O[C@H](CO)[C@@H](O)[C@H](O)[C@H]2O)c1Cc1ccccc1OCc1cccc(Cl)c1` [Example 15, 4-[2-(3-Chlorobenzyloxy)benzyl]-3-(β-D-glucopyranosyloxy)-5-isopropyl-1H-pyrazole] showed an IC50 (human SGLT1) of 1 nM.
Work on `CCc1c(Cc2ccccc2OCc2ccccc2)c(O[C@@H]2O[C@H](CO)[C@@H](O)[C@H](O)[C@H]2O)nn1CCO` [Example 19, 4-(2-Benzyloxybenzyl)-5-ethyl-3-(β-D-glucopyranosyloxy)-1-(2-hydroxyethyl)-1H-pyrazole] yielded an IC50 (human SGLT1) of 80 nM.
In the case of `CC(C)c1[nH]nc(O[C@@H]2O[C@H](CO)[C@@H](O)[C@H](O)[C@H]2O)c1Cc1ccccc1OCc1cccc(O)c1` [Example 12, 3-(β-D-Glucopyranosyloxy)-4-[2-(3-hydroxybenzyloxy)benzyl]-5-isopropyl-1H-pyrazole], the IC50 (human SGLT1) is reported as 35 nM.
`OCCn1nc(O[C@@H]2O[C@H](CO)[C@@H](O)[C@H](O)[C@H]2O)c(Cc2ccccc2OCc2ccccc2)c1C(F)(F)F` [Example 11, 4-(2-Benzyloxybenzyl)-3-(β-D-glucopyranosyloxy)-1-(2-hydroxyethyl)-5-trifluoromethyl-1H-pyrazole] was tested, and the IC50 (human SGLT1) was 13 nM.
With `OC[C@H]1O[C@@H](Oc2n[nH]c(C(F)(F)F)c2Cc2ccccc2OCc2ccccc2)[C@H](O)[C@@H](O)[C@@H]1O` [Example 21, 4-(2-Benzyloxybenzyl)-3-(β-D-glucopyranosyloxy)-5-trifluoromethyl-1H-pyrazole] the IC50 (human SGLT1) was 14 nM.
